Consider six compounds from article PMC12707362, “Targeting Aurora Kinases as Essential Cell‐Cycle Regulators to Deliver Multi‐Stage Antimalarials Against Plasmodium Falciparum” (Angewandte Chemie (International Ed. in English), 2025).

Like-named read-outs stand apart in the source and are kept apart here.

Experiment [1] concerns PfNF54 male gamete formation (exflagellation). Nature of the experiment: P. falciparum Dual Gamete Formation Assay (PfDGFA), male. The conditions noted are these: Plasmodium falciparum. The format is cell-based. The protocol: (§1) The Pf DGFA^[8] was performed by incubating PfNF54 gametocytes with test molecules in 384-well plates for 48 h. Gametogenesis was triggered with the addition of xanthurenic acid and a decrease in temperature. Male and female gametes were identified through fluorescent microscopy and quantified from recorded data using a custom imaging algorithm and then compared to negative (DMSO) and positive (1 µM cabamiquine) controls. Percentage inhibition was calculated, and dose-response curves were constructed in GraphPad Prism v10.5 to calculate IC50 values.

Another experiment concerns PfNF54 female gametes. Description: P. falciparum Dual Gamete Formation Assay (PfDGFA), female. The format is cell-based, Plasmodium falciparum. The protocol: as §1
The target in experiment [2] is T1, recombinant PfCLK3 kinase domain (Plasmodium falciparum, UniProt Q8IIL5).
T1 sequence (Q8IIL5 317-694): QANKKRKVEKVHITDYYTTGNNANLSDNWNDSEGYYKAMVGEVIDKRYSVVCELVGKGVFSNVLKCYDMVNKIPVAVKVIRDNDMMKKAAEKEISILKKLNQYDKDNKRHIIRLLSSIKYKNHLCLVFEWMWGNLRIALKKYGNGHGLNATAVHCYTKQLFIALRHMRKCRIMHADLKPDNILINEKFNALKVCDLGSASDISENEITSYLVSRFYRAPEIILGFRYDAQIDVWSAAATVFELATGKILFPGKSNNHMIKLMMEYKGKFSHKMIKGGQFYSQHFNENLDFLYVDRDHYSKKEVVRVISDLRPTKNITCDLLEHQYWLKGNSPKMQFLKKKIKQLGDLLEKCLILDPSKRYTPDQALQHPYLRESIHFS
Description: ADP-Glo kinase assay, PfCLK3. The format is biochemical. An excerpt: Full-length PfPKG (PF3D7_1436600)^[19] and PvPI4Kβ (PVX_098050)^[20] recombinant proteins were expressed in E. coli and baculovirus-insect cell expression systems. The kinase domain of PfCLK3 (PF3D7_1114700, Gln317 to Ser694) was expressed in E. coli Rosetta™(DE3)pLysS cells (kind gift from Rafael M. Couñago, CQMED, University of Campinas). Briefly, the N-terminal His-tagged kinases were purified using immobilized metal affinity chromatography, followed by anion exchange chromatography in the case of PfPKG, and size exclusion chromatography. Dose-response kinase inhibition assays were carried out using the ADP-Glo kinase assay kit^[21], with 1 nM PfPKG, 10 μM ATP, 20 μM […]-NH2, 1% (v/v) DMSO and inhibitor in PKG assay buffer (25 mM HEPES pH 7.4, 0.1 mg/mL BSA, 0.01% (v/v) Triton-X 100, 20 mM MgCl2, 2 mM DTT, 10 μM cGMP); or 6 nM PvPI4Kβ, 10 μM ATP, 0.1 mg/ml L-alpha-phosphatidylinositol, 1% (v/v) DMSO and inhibitor in PI4Kβ assay buffer (25 mM HEPES pH 7.4, 100 mM NaCl, 3 mM MgCl2, 1 mM DTT, 0.025 mg/ml BSA, 0.2% (v/v) Triton-X-100); or 15 nM PfCLK3, 10 μM ATP, 20 μM myelin basic protein, 1% (v/v) DMSO and inhibitor in assay buffer (50 mM HEPES pH 7.4, 0.1 mg/mL BSA, 0.01% (v/v) Triton-X 100, 20 mM MgCl2, 2 mM DTT). […] Mean IC50 values were calculated from two independent experiments, each with technical duplicates.
For orientation: ADP-Glo turns the ADP formed in a reaction into a luminescent signal.

The subject of experiment [3] is P. falciparum drug-sensitive NF54 (PfNF54) asexual intra-erythrocytic parasites. Description: SYBR Green I proliferation assay, PfNF54 asexual blood stages. The format is cell-based, Plasmodium falciparum. From the text:
Figure 1 Activity profile of Aur class anticancer inhibitors across the life cycle of Plasmodium falciparum parasites. a) Activity (IC50) of inhibitors (grouped based on specificity against human Aur) against P.falciparum drug‐sensitive (PfNF54) asexual intra‐erythrocytic parasites as measured with SYBR Green I fluorescence as an indicator of viability and proliferation. […] ABS, asexual blood stages of the parasite; HsAur, human Aur.
P. falciparum drug sensitive NF54 (PfNF54) and drug-resistant Dd2 (PfDd2, chloroquine, pyrimethamine and mefloquine resistant) strains were cultured in vitro in human O^+/A^+ erythrocytes (5% hematocrit) in complete medium at 2–5% parasitemia, 37 °C, shaking at 60 rpm under hypoxic conditions (90% N2, 5% O2 and 5% CO2). […] Gametocytogenesis was followed with daily media changes (including glucose) and ABS parasites removed with 50 mM N-acetylglucosamine (day 1–4 for stage II/III; days 3–7 for stage IV/V).
All inhibitors were dissolved in dimethyl sulfoxide (DMSO). […] Ring-stage ABS parasites (1% parasitemia, 1% hematocrit) were treated with compounds for 96 h at 37 °C with chloroquine disulphate (0.5 μM) as positive drug control. […] Luciferase activity was determined using a non-lysing D-luciferin substrate (1 mM in 0.1 M citrate buffer, pH 5.5, 100 μL) and bioluminescence was detected with a GloMax® - Multi Detection System with Instinct® software.

For experiment [4], the system named is synthetic β-hematin (βH) formation. Description: NP-40 mediated cell-free β-hematin inhibition assay. The format is biochemical. As to conditions: cell-free NP-40, pH 4.8, 5 h. How it is done: The β-hematin inhibition assay, as described in^[30,31] was used to test the inhibitors for their ability to inhibit β-hematin formation. The test samples were prepared as 20 mM or 10 mM stock solutions in dimethyl sulfoxide (DMSO). Serial dilutions of each inhibitor (100 μL) were performed from column 12 to column 2 of a 96-well plate in triplicate, with column 1 serving as a negative control (0 μM test inhibitor). The samples were tested at a starting in-well concentration of 1000 μM (20 mM stock) or 500 μM (10 mM stock). An “NP-40 substitute” detergent was added (305.5 μM) to each well to mimic the lipophilic environment in which hemozoin formation occurs within the parasite’s digestive vacuole, in helping to mediate the formation of β-hematin. A 25 mM hematin stock was prepared by sonicating heme in DMSO and then suspending 178.8 μL of this in 1 M acetate buffer (20 mL, pH 4.8). Then, 100 μL of the hematin suspension was added to each well to a final well volume of 200 μL. The plate was then incubated for 5 hours at 37 °C. After incubation, 32 μL and 60 μL of 50% pyridine solution and acetone were added, respectively. The pyridine-ferrochrome method by^[31] was used for UV-vis analysis, with the heme-pyridine complex absorbance measured at 405 nm. Data were analysed using Microsoft Excel and GraphPad Prism v10.5 software.

Setting [5] is: 48 h, read-out: Pf DGFA IC50 Male.
[6] abbreviates: read-out: IC50 male gamete exflagellation.
Setting [7] is: 10 µM ATP, read-out: IC50 PfCLK3.
Where [8] appears, read: Plasmodium falciparum, NF54, 96 h, read-out: Pf NF54 ABS IC50.
Where [9] appears, read: Plasmodium falciparum, NF54, read-out: Pf NF54 ABS IC50.
Where [10] appears, read: Plasmodium falciparum, NF54, 96 h, ring-stage ABS, 96 h, SYBR Green I, read-out: Pf NF54 ABS IC50.
Setting [11] is: Plasmodium falciparum, NF54, bounds stated in text, read-out: Pf NF54 ABS IC50.
Setting [12] is: ring-stage ABS, 96 h, SYBR Green I, read-out: Pf NF54 ABS IC50.
Where [13] appears, read: Plasmodium falciparum, 48 h, read-out: Pf DGFA IC50 Female.

Broadly, the IC50 is the concentration needed to halve the response being measured. As for `O=C(Nc1c[nH]nc1-c1nc2ccc(CN3CCOCC3)cc2[nH]1)NC1CC1` [AT83, AT9283], the IC50 in experiment [1] (setting [5]) is 800 nM; in experiment [1] (setting [6]), 786 ± 16 nM; with PfNF54 female gametes (Plasmodium falciparum, 48 h; read-out: Pf DGFA IC50 Female), more than 10000 nM; in experiment [2] (setting [7]) it was 100 nM.

For `CCN1CCN(C(=O)Cc2ccc(Nc3ncc(F)c(Nc4ccc(C(=O)Nc5ccccc5Cl)cc4)n3)cc2)CC1` [AAi I, Aurora A Inhibitor I], the IC50 in experiment [3] (setting [8]) is 475 ± 90.1 nM; in experiment [3] (setting [9]) it was less than 1000 nM; in experiment [2] (setting [7]), 2400 nM; in experiment [4], less than 20000 nM.

With `O=C(Nc1cccc(Nc2nccc(Nc3cccc(C(F)(F)F)c3)n2)c1)C1CC1` [Aki III, Aurora kinase inhibitor III], the IC50 in experiment [3] (setting [10]) was 819 nM; in experiment [3] (setting [11]), less than 1000 nM; in experiment [2] it was more than 10000 nM; in experiment [4], less than 20000 nM.

Take `CCN(CCO)CCCOc1ccc2c(Nc3cc(CC(=O)Nc4cccc(F)c4)n[nH]3)ncnc2c1` [AZD-1152, AZD-1152-HQPA]: the IC50 in experiment [3] (setting [8]) was 753 nM; in experiment [3] (setting [9]), less than 1000 nM; in experiment [2] (setting [7]) it was more than 10000 nM; in experiment [4], less than 20000 nM.

With `COc1cc(N2CCC(N3CCN(C)CC3)CC2)ccc1Nc1ncc(Cl)c(Nc2ccccc2S(=O)(=O)C(C)C)n1` [TAE684, NVP-TAE684], the IC50 was 280 ± 13 nM in experiment [3] (setting [10]); 279 nM in experiment [3] (setting [12]); 120 nM in experiment [1] (setting [5]); 116 ± 17 nM in experiment [1] (setting [6]); 2260 nM in the experiment on PfNF54 female gametes (48 h; read-out: Pf DGFA IC50 Female); 2300 ± 50 nM in the experiment on PfNF54 female gametes (setting [13]). Also, the IC50 is more than 10000 nM in experiment [2] (setting [7]) and 41400 ± 2300 nM in experiment [4].

Turning to `COc1cc2c(Nc3ccc(NC(=O)c4ccccc4)cc3)ncnc2cc1OCCCN1CCOCC1` [ZM-39, ZM-447439], the IC50 in experiment [3] (setting [10]) was less than 250 nM; in experiment [3] (setting [11]), less than 1000 nM; in experiment [3] (setting [12]), 235 nM; in experiment [1] (setting [5]) it was more than 10000 nM; with PfNF54 female gametes (setting [13]), more than 10000 nM; in experiment [2] (setting [7]), more than 10000 nM. Moreover, the IC50 in experiment [4] was less than 20000 nM.
